Series [1] has as its system epimastigote of T. cruzi (Y strain). The series is described as follows: Trypanocidal capacity assay, epimastigotes (AlamarBlue). The conditions noted are these: 72 h; for IC50: Trypanosoma cruzi, read-out: T. cruzi IC50; for T. cruzi IC50: epimastigotes, mean ± SD. For orientation: The colour change of resazurin is a common sign of viable cells or microbes.
Description: Epimastigotes were cultured in Liver Infusion Tryptose (LIT) medium supplemented with 10% FBS at 26 °C and were grown to the log phase for use in further experiments.
The assay was carried out in vitro against epimastigote stage of T. cruzi. […] Benznidazole (Sigma-Aldrich, Madrid, Spain) was used as a reference drug.
(§3) All experiments were performed three times, in duplicates for each concentration tested, and the mean values were also calculated. A Tukey test was used for analysis of the data.
Series [2] can be described thus: Cytotoxicity assay (AlamarBlue). The conditions noted are these: mouse.
Description: (§4) After 24 h, cell viability was determined using AlamarBlue® method [24]. Miltefosine (Cayman Chemicals, Vitro SA, Madrid, Spain) and benznidazole (Sigma-Aldrich, Madrid, Spain) were used as reference drugs.
as §3
Series [3] relates to macrophage J774A.1 cell line. The experiment in a line: Cytotoxicity assay (AlamarBlue). The note with it: 24 h, AlamarBlue, mean ± SD.
Description: as §4, §3
The subject of series [4] is L. amazonensis promastigotes. The series is described as follows: Mitochondrial membrane potential (JC-1). It counts as cell-based, Leishmania amazonensis. The conditions noted are these: IC90 (8.36 µM), 24 h. The protocol:
(§1) The decrease in the mitochondrial membrane potential was detected using a JC-1 Mitochondrial Membrane, Potential Assay Kit, Cayman Chemical. […] The pellet was resuspended in JC-1 buffer. After that, 100 µL of each treated culture was added to a black 96-well plate (PerkinElmer) and 10 µL of JC-1 was added, and the plate was incubated for half an hour at 26 °C. Green and red fluorescence intensity was measured using an Enspire microplate reader (PerkinElmer, Massachusetts, USA) for 30 min. In addition, the depolarization of the mitochondrial membrane potential was confirmed by microscopic observation using EVOS FL Cell Imaging System AMF4300, Life Technologies, USA.

Series [5] has as its system promastigotes of L. amazonensis (MHOM/BR/77/LTB0016). The experiment in a line: Leishmanicidal capacity assay, promastigotes (AlamarBlue). The note with it: for IC50 / L. amazonensis IC50: promastigotes, 72 h, mean ± SD. It counts as cell-based, Leishmania amazonensis.
The next series relates to L. donovani. The series is described as follows: Plasma membrane permeability (SYTOX Green). The note with it: IC90, 24 h. It counts as cell-based, Leishmania donovani. As for the experimental part:
(§2) The SYTOX® Green assay was performed to detect the membrane permeability alterations in parasites. […] SYTOX® Green was added at a final concentration of 1 μM (Molecular Probes).

For a further series, the system named is L. amazonensis. The experiment in a line: Plasma membrane permeability (SYTOX Green). It counts as cell-based, Leishmania amazonensis. The note with it: IC90, 24 h. The protocol: as §2
Series [6] concerns promastigotes of L. donovani (MHOM/IN/90/GE1F8R). The experiment in a line: Leishmanicidal capacity assay, promastigotes (AlamarBlue). It counts as cell-based, Leishmania donovani. The note with it: 72 h, mean ± SD; for IC50: Leishmania donovani.
For series [7], the system named is L. donovani promastigotes. The experiment in a line: Mitochondrial membrane potential (JC-1). It counts as cell-based, Leishmania donovani. The note with it: IC90, 24 h. As for the experimental part:
as §1

The subject of another series is T. cruzi epimastigotes. The series is described as follows: Mitochondrial membrane potential (JC-1). It counts as cell-based, Trypanosoma cruzi. The note with it: IC90, 24 h. As for the experimental part:
as §1

For the next series, the system named is T. cruzi. The experiment in a line: Plasma membrane permeability (SYTOX Green). The note with it: IC90, 24 h. It counts as cell-based, Trypanosoma cruzi. The protocol:
as §2

In series [8] the test system is L. amazonensis amastigotes. The experiment in a line: Anti-amastigote activity, intra-macrophage stage in J774A.1. The note with it: for Selectivity Index (CC50/IC50): CC50 J774A.1 / IC50 L. amazonensis amastigotes; for IC50: Leishmania amazonensis, J774.A1, read-out: L. Amazonensis Amastigotes IC50.
Description: The anti-amastigote activity was measured according to Jain et al. [26]. […] After one hour of incubation, 100 µL of stationary phase promastigotes of 7-day-old culture was added in a 10:1 ratio (2 × 10^6/mL) and the plates were re-incubated at 37 °C for 24 h to achieve a maximum infection. […] Separately, and in a 96-deep well plate, a serial dilution of the selected compounds was made with the same medium and then 50 μL of each dilution was added to each well. The plates were incubated at 37 °C, 5% CO2 for 24 h. After this incubation, we removed the medium from each well and 30 μL of Schneider medium containing 0.05% SDS was added to each well. The plate was shacked for 30 s and 170 μL of Schneider medium were added to each well. AlamarBlue® at 10% was added into each well and incubated at 26 °C for 72 h. […] Miltefosine (Cayman Chemicals, Vitro SA, Madrid, Spain) was used as reference drug.
as §3
Series [9] concerns promastigotes of L. donovani. The series is described as follows: Microscopic morphology of treated promastigotes. The note with it: 10 µM; flagellar pocket increased, invagination of plasma membrane. It counts as cell-based, Leishmania donovani.
The next series deals with protein kinase C (PKC). The conditions noted are these: cited from earlier work.
The target in a further series is phosphorylase kinase. The note with it: cited from earlier work.
The next series addresses protein kinase A (PKA). The note with it: cited from earlier work.
The next series in a line: in vitro. The note with it: mouse.
The test system of series [10] is macrophage J774A.1 cell line.
Description: as §4, §3

Read-outs that look alike come from different tables or passages of the source.

Description for in vitro: as §4, §3

With `O=C(Cn1ccnc1[N+](=O)[O-])NCc1ccccc1` [Benznidazole], in series [1], the IC50 is 6.94 ± 1.94 µM. In addition, the CC50 at 24 h in series [2] (J774A.1 macrophage cell line) worked out at 400 ± 4 µM.

For the compound `CN[C@@H]1C[C@H]2O[C@@](C)([C@@H]1OC)n1c3ccccc3c3c4c(c5c6ccccc6n2c5c31)C(=O)NC4` [Compound 1, staurosporine], the IC50 in series [1] worked out at 3.63 ± 0.77 µM. In [3] (read-out: Macrophage J774A.1 CC50), the CC50 came out at 8.74 ± 0.72 µM.

With `CN[C@@H]1C[C@H]2O[C@@](C)([C@@H]1OC)n1c3ccccc3c3c4c(c5c6ccccc6n2c5c31)C(=O)NC4=O` [Compound 2, 7-oxostaurosporine], the “effect on mitochondrial membrane potential (ΔΨm)” value was “intense effect” in series [4], “did not observe any change” in series [7] and “did not observe any change” with T. cruzi epimastigotes. In addition, the IC50 is 1.58 ± 0.52 µM in series [1], 3.58 ± 1.1 µM in series [5] (Leishmania amazonensis), 0.56 ± 0.06 µM in series [6] and 0.1 µM in [8]. Further, the IC90 in [5] (Leishmania amazonensis, read-out: IC90 concentration, L. amazonensis promastigotes) came to 8.36 µM. Further, the cytoplasmic membrane permeability entry with L. donovani is given as “remarkable membrane alteration”; with L. amazonensis it was “does not seem to be permeable”; in the series on T. cruzi it was “remarkable membrane alteration”. Moreover, the “Selectivity Index (CC50/IC50)” value in series [8] came to 52. Besides, in [9], the “morphological changes of parasites” value is given as “morphological changes”. The CC50 at 24 h in series [2] came to 5.2 ± 1.75 µM.

Consider `CO[C@@H]1C(=O)C[C@H]2O[C@]1(C)n1c3ccccc3c3c4c(c5c6ccccc6n2c5c31)C(=O)NC4` [Compound 3, 4′-demethylamino-4′-oxostaurosporine], for which the concentration for half-maximal inhibition (IC50) in series [1] is 17.1 ± 1.64 µM; in series [5] (Leishmania amazonensis), 17.1 ± 4.78 µM; in series [6] it was over 40 µM; in series [8], 2.03 ± 0.27 µM. The “Macrophage J774A.1 CC50” value in series [3] was “low toxicity”. In series [2] (J774A.1 macrophage cell line), the CC50 at 24 h is over 40 µM.

For the compound `COC1=C(C)O[C@@H]2C[C@@]1(OC)n1c3ccccc3c3c4c(c5c6ccccc6n2c5c31)C(=O)NC4` [Compound 4, streptocarbazole B], the IC50 in series [1] is 12.5 ± 2.06 µM; in [5] (Leishmania amazonensis), 10.4 ± 0.21 µM; in series [6] it was over 40 µM; in [8] it was 2.47 ± 0.09 µM. Moreover, the “Macrophage J774A.1 CC50” value in series [3] is recorded as “low toxicity”. In addition, the CC50 at 24 h in series [2] (J774A.1 macrophage cell line) is over 40 µM.

As for `CO[C@H]1[C@H](O)[C@@H](O)[C@H](n2c3c(Cl)cccc3c3c4c(c5c6cccc(Cl)c6[nH]c5c32)C(=O)NC4=O)O[C@@H]1CO` [Compound 5, rebeccamycin], in series [1], the IC50 is over 40 µM and the “T. cruzi IC50” value was “completely inactive”. This compound also had a 50% inhibitory concentration (IC50) in series [5] (Leishmania amazonensis) of over 40 µM. The “L. amazonensis IC50” value in [5] was “completely inactive”. In series [6], the “L. donovani IC50” value is “completely inactive” and the IC50 is over 40 µM. The “inhibitory effect on PKC” value with protein kinase C (PKC) was “no inhibitory effect”. This compound displayed a CC50 at 24 h in series [2] (J774A.1 macrophage cell line) of 1.42 ± 0.19 µM.

Take `COC(=O)[C@@]1(O)C[C@H]2O[C@]1(C)n1c3ccccc3c3c4c(c5c6ccccc6n2c5c31)C(=O)NC4` [Compound 6, K252a]: the IC50 was 4 ± 0.24 µM in series [1]; 5.9 ± 0.96 µM in series [5] (Leishmania amazonensis); 8.09 ± 1.12 µM in series [6]; 0.0017 µM at phosphorylase kinase; 0.14 µM on protein kinase A (PKA). In series [2], this compound yielded a CC50 at 24 h of 1.07 ± 0.21 µM.

Consider `C[C@]12O[C@H](C[C@]1(O)C(=O)O)n1c3ccccc3c3c4c(c5c6ccccc6n2c5c31)CNC4=O` [Compound 7, K252b], for which the IC50 is 7.41 ± 0.93 µM in series [1], 20.6 ± 4.5 µM in [5] (Leishmania amazonensis) and 4.45 ± 0.71 µM in series [6]. The compound further had a CC50 at 24 h in “in vitro” of over 40 µM. Besides, in series [10], the “Macrophage J774A.1 CC50” value is listed as “low toxicity”.

`O=C1NCc2c1c1c3ccccc3[nH]c1c1[nH]c3ccccc3c21` [Compound 8, K252c]: the IC50 in series [1], in series [5] (Leishmania amazonensis) and in series [6] was over 40 µM each time. Further, in [1], the “T. cruzi IC50” value was “completely inactive”. Further, in [5], the “L. amazonensis IC50” value is “completely inactive”. Also, in [6], the “L. donovani IC50” value is “completely inactive”. For the same compound, in series [3], the “Macrophage J774A.1 CC50” value is reported as “low toxicity”. In series [2] (J774A.1 macrophage cell line), this compound yielded a CC50 at 24 h of 35.4 ± 2.47 µM.

As to `O=C1NC(=O)c2c1c1c3ccccc3[nH]c1c1[nH]c3ccccc3c21` [Compound 9, arcyriaflavin A], in [1], the IC50 is over 40 µM and the “T. cruzi IC50” value is “completely inactive”. The IC50 in series [5] (Leishmania amazonensis) is over 40 µM. Further, in [5], the “L. amazonensis IC50” value is “completely inactive”. Further, in “in vitro”, the CC50 at 24 h is over 40 µM. In [6], the “L. donovani IC50” value is “completely inactive” and the IC50 was over 40 µM. Besides, the “Macrophage J774A.1 CC50” value in series [10] was “low toxicity”.

Consider `CCCCCCCCCCCCCCCCOP(=O)([O-])OCC[N+](C)(C)C` [Miltefosine], for which, in series [6], the midpoint of inhibition, the IC50, lay at 3.32 ± 0.27 µM. Moreover, in series [8], the “Selectivity Index (CC50/IC50)” value is 23. The CC50 at 24 h in [2] (J774A.1 macrophage cell line) came to 72.2 ± 3.06 µM.

Usually IC50 stands for the point on the concentration scale where inhibition reaches its midpoint.

Source of the values: PMC7226613, “Antikinetoplastid Activity of Indolocarbazoles from Streptomyces sanyensis” (Biomolecules, 2020).
